The subject of experiment [1] is Dirofilaria immitis third-stage larvae. The experiment can be described thus: In vitro assay 4: Dirofilaria immitis (DIROIM L4), motility. The conditions noted are these: 72 h, read-out: EC50 (reduction of motility).
The subject of experiment [2] is Cooperia curticei. The conditions noted are these: Cooperia curticei, 120 h, read-out: activity (larval mortality).
Description: In Vitro Assay 6: Cooperia curticei (COOPCU L3)
Solvent: dimethyl sulfoxide
Approximately 40 nematode larvae (Cooperia curticei) are transferred into a test tube containing the compound solution.
After 5 days percentage of larval mortality is recorded. 100% efficacy means all larvae are killed; 0% efficacy means no larvae are killed.
Experiment [3] deals with C. elegans Slo-1a (Caenorhabditis elegans, UniProt Q95V25). The conditions noted are these: pE50 (negative decadic logarithm of EC50), CHO cells expressing C. elegans Slo-1a, voltage sensitive dye.
Description: In Vitro Assay 1: C. elegans Slo-1a—Action at a Recombinant C. elegans Cell Line
Cells were cultured at 37° C. and 5% CO2 in MEMalpha with Gutamax I (Invitrogen, Nr.: 32571), supplemented with 10% (v/v) heat inactivated fetal bovine serum (Invitrogen, Nr.: 10500), G418 (1 mg/ml, Invitrogen, Nr.: 10131). Cells were detached using Accutase (Sigma, Nr.: A6964).
Membrane Potential Measurements
Laboratory compound testing was performed on 384-well microtiter plates (MTPs, Greiner, Nr.: 781092). 8000 cells/well were plated onto 384-well MTPs and cultured for 20 to 24 hours at 37° C. and 5% CO2. After removal of the cell culture medium, the cells were washed once with tyrode (150 mM NaCl, 0.3 mM KCl, 2 mM CaCl2, 1 mM MgCl2, 0.8 mM NaH2PO4, 5 mM Glucose, 28 mM Hepes, pH 7.4) and then loaded with the voltage sensitive dye of the Membrane Potential Assay Kit diluted in tyrode for 1 h at room temperature.
After starting the measurement of fluorescence using a FLIPR Tetra (Molecular Devices, Exc. 510-545 nm, Emm. 565-625 nm), test compounds were added followed by the addition of KCl tyrode (final assay concentration: 70 mM KCl, 2 mM CaCl2, 1 mM MgCl2, 0.8 mM NaH2PO4, 5 mM Glucose, 28 mM Hepes, pH 7.4, including the voltage sensitive dye). The measurement was completed after 7 minutes.
The data were evaluated by using the ActivityBase XLfit software (IDBS) for curve fitting and calculation of the half-maximal effective concentration (EC50) and are reported as negative decadic logarithm (pE50).
Experiment [4] concerns Dirofilaria immitis microfilariae. Kind of experiment: In vitro assay 3: Dirofilaria immitis microfilariae (DIROIM L1), motility. Conditions: 72 h, read-out: EC50 (reduction of motility), 72 h incubation.
Experiment [5] deals with Nippostrongylus brasiliensis. The experiment can be described thus: In vitro assay 2: Nippostrongylus brasiliensis (NIPOBR), acetylcholine esterase readout. The conditions noted are these: read-out: activity (reduction of AChE compared to negative control); for inhibition at 1 µg/mL: 1 μg/ml; for inhibition at 10 µg/mL: 10 μg/ml. Here is the method:
In Vitro Assay 2: Nippostrongylus brasiliensis (NIPOBR)
Adult Nippostrongylus brasiliensis were washed with saline buffer containing 100 U/ml penicillin, 0.1 mg/ml streptomycin and 2.5 μg/ml amphotericin B. Test compounds were dissolved in DMSO and worms were incubated in medium in a final concentration of 10 μg/ml (10 ppm) respectively 1 μg/ml (1 ppm). An aliquot of the medium was used to determine the acetylcholine esterase activity in comparison to a negative control. The principle of measuring acetylcholine esterase as readout for anthelmintic activity was described in Rapson et al (1986) and Rapson et al (1987).

Experiment [6] deals with Haemonchus contortus. The conditions noted are these: 120 h, read-out: activity (larval mortality).
Description: In Vitro Assay 7: Haemonchus contortus (HAEMCO L3)
Solvent: dimethyl sulfoxide
Approximately 40 larvae of the red stomach worm (Haemonchus contortus) are transferred into a test tube containing compound solution.
After 5 days the percentage of larval mortality is recorded. 100% efficacy means all larvae are killed, 0% efficacy means no larvae are killed.

These results are taken from US10889573B2, “Anthelmintic quinoline-3-carboxamide derivatives” (Bayer Animal Health GMBH, priority 2016, dated 2021).

C. elegans Slo-1a, sequence (Q95V25 whole entry): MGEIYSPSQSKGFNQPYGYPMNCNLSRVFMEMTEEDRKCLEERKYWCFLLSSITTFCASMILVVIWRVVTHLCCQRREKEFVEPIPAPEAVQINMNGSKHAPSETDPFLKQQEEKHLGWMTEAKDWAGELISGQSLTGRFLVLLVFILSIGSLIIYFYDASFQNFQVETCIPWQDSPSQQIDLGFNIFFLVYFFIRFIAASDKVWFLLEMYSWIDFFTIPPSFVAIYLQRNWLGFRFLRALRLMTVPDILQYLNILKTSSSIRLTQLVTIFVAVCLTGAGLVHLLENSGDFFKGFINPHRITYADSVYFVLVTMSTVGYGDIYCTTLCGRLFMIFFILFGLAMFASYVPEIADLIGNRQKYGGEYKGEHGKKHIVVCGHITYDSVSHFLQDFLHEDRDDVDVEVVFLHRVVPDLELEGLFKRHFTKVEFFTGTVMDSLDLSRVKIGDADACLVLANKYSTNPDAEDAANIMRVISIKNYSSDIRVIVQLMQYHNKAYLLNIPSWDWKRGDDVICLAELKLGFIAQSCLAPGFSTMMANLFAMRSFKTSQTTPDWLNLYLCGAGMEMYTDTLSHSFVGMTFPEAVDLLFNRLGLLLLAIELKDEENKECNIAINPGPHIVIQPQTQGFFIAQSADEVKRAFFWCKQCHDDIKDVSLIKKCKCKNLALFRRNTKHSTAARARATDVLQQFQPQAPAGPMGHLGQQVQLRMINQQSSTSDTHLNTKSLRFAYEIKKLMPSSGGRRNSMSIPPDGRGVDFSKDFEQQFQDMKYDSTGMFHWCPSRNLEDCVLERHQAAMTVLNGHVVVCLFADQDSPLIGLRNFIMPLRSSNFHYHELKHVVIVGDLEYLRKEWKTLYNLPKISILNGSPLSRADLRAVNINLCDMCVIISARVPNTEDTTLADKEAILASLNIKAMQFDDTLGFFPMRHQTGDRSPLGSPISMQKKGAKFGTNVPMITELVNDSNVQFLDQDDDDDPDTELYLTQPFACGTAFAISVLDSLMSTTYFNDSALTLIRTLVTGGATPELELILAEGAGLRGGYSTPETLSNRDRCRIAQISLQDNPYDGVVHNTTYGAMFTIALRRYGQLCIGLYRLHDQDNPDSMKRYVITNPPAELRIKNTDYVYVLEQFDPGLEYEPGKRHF

Turning to `O=C(N[C@H]1CCOc2ccccc21)c1cnc2c(-c3ccc(F)c(Cl)c3)cccc2c1N1CCC(O)C1` (mixture of isomers) [Example 196], the EC50 in experiment [1] was < 0.1 µg/mL; in experiment [3], 3.16 to 31.6 nM; in experiment [4], < 0.1 µg/mL. For the same compound, in experiment [2], the mortality at 4 ppm was 90%. In addition, in experiment [2], the mortality at 20 ppm is 100%.

Consider `Cc1cc(C)cc(-c2cccc3c(Cl)c(C(=O)N[C@H]4CCCc5ccccc54)cnc23)c1` [Example 1, 4-chloro-8-(3,5-dimethylphenyl)-N-[(1S)-1,2,3,4-tetrahydronaphthalen-1-yl]quinoline-3-carboxamide], for which the EC50 in experiment [1] was < 1 µg/mL; in experiment [3], 31.6 to 316 nM; in experiment [4], < 0.1 µg/mL.

With `O=C(N[C@H]1CCCc2ccccc21)c1cnc2c(-c3cc(Cl)cc(Cl)c3)cccc2c1Cl` [Example 2], the EC50 in experiment [1] is < 1 µg/mL; in experiment [3], 3.16 to 31.6 nM; in experiment [4], < 10 µg/mL.

On to `O=C(N[C@H]1CCOc2ccccc21)c1cnc2c(-c3cc(Cl)c(F)c(Cl)c3)cc(F)cc2c1N1CCOCC1` [Example 43], for which the inhibition at 1 µg/mL in experiment [5] was > 80%. Also, the inhibition at 10 µg/mL in experiment [5] was > 80%. Also, the EC50 was < 0.1 µg/mL in experiment [1], < 3.16 nM in experiment [3] and < 0.1 µg/mL in experiment [4].

As for `CN(C)c1c(C(=O)N[C@H]2CCOc3ccccc32)cnc2c(-c3ncccc3F)cccc12` [Example 62], in experiment [5], the inhibition at 10 µg/mL was > 80%. In addition, the concentration for a half-maximal effect (EC50) in experiment [1] is < 0.1 µg/mL; in experiment [3], 31.6 to 316 nM; in experiment [4], < 1 µg/mL.

Regarding `COc1cc(-c2cccc3c(N(C)C)c(C(=O)N[C@H]4CCOc5ccccc54)cnc23)ccn1` [Example 64], in experiment [5], the inhibition at 10 µg/mL is > 80%. In addition, the EC50 in experiment [1] was < 0.1 µg/mL; in experiment [3] it was 3.16 to 31.6 nM; in experiment [4] it was < 0.1 µg/mL.

Regarding `O=C(N[C@H]1CCc2ccccc21)c1cnc2c(-c3cc(Cl)cc(Cl)c3)cccc2c1N1CC(F)C1` [Example 119], the inhibition at 1 µg/mL in experiment [5] was > 80%. Besides, the inhibition at 10 µg/mL in experiment [5] was > 80%. The values for the EC50 in experiment [1], in experiment [3] and in experiment [4] were < 0.1 µg/mL, 3.16 to 31.6 nM and < 0.1 µg/mL, respectively.

On to `O=C(N[C@H]1CCOc2ccccc21)c1cnc2c(-c3cccc(F)c3Cl)cccc2c1N1CCOCC1` [Example 238], for which the inhibition at 1 µg/mL in experiment [5] is > 80%. Moreover, the 50% effective concentration (EC50) was < 0.1 µg/mL in experiment [1], < 3.16 nM in experiment [3] and < 0.1 µg/mL in experiment [4]. Also, in experiment [2], the mortality at 20 ppm was found to be 80%.

In the case of `O=C(N[C@H]1CCOc2ccccc21)c1cnc2c(-c3cc(Cl)cc(Cl)c3)cccc2c1N1CCC[C@H]1C(=O)O` [Example 261, 1-{8-(3,5-dichlorophenyl)-3-[(4S)-3,4-dihydro-2H-chromen-4-ylcarbamoyl]quinolin-4-yl}-L-proline], in experiment [5], the inhibition at 1 µg/mL was > 80%. Further, the concentration for a half-maximal effect (EC50) in experiment [1] and in experiment [4] was < 0.1 µg/mL each time.

In the case of `O=C(O)CNc1c(C(=O)N[C@H]2CCOc3ccccc32)cnc2c(-c3cc(Cl)cc(Cl)c3)cccc12` [Example 276], in experiment [5], the inhibition at 1 µg/mL was > 80%. Besides, the mortality at 20 ppm in experiment [2] worked out at 90%; in experiment [6], 80%. Besides, the figures for the EC50 in experiment [3] and in experiment [4] were 31.6 to 316 nM and < 0.1 µg/mL, respectively.

`CN(C)c1c(C(=O)N[C@H]2CCOc3ccccc32)cnc2c(-c3c(F)cccc3F)cccc12` [Example 277]: the inhibition at 1 µg/mL in experiment [5] was > 80%. Also, the concentration giving a half-maximal response (EC50) in experiment [1] was < 0.1 µg/mL; in experiment [3] it was < 3.16 nM; in experiment [4], < 0.1 µg/mL.

For `O=C(N[C@H]1CCOc2ccccc21)c1cnc2c(-c3c(F)cccc3F)c(F)ccc2c1N1CCOCC1` [Example 278], the EC50 in experiment [1] is < 0.1 µg/mL; in experiment [3], < 3.16 nM; in experiment [4], < 0.1 µg/mL.

`O=C(N[C@H]1CCOc2ccccc21)c1cnc2c(-c3cc(Cl)cc(Cl)c3)cccc2c1N1CC[C@@H](O)C1` [Example 283]: the inhibition at 1 µg/mL in experiment [5] is > 80%. The concentration giving a half-maximal response (EC50) in experiment [1] was < 0.1 µg/mL; in experiment [3], < 3.16 nM; in experiment [4], < 0.1 µg/mL.

Regarding `C[C@H]1CN(c2c(C(=O)N[C@H]3CCOc4ccccc43)cnc3c(-c4cc(Cl)cc(Cl)c4)cccc23)CCO1` [Example 290], in experiment [5], the inhibition at 1 µg/mL was > 80%. Further, the EC50 was < 0.1 µg/mL in experiment [1], < 3.16 nM in experiment [3] and < 0.1 µg/mL in experiment [4].

For `O=C(N[C@H]1CCOc2ccccc21)c1cnc2c(-c3cccc(Cl)c3Cl)c(C(F)(F)F)ccc2c1N1CCOCC1` [Example 314], the inhibition at 1 µg/mL in experiment [5] is > 80%. Further, the values for the EC50 in experiment [1], in experiment [3] and in experiment [4] were < 0.1 µg/mL, < 3.16 nM and < 0.1 µg/mL, respectively. Also, the mortality at 20 ppm in experiment [2] was 90%.

For the compound `CN(C)c1c(C(=O)N[C@H]2CCOc3ccccc32)cnc2c(-c3cccc(Cl)c3Cl)c(C(F)(F)F)ccc12` [Example 315], the inhibition at 1 µg/mL in experiment [5] is > 80%. Moreover, the half-maximal effective concentration (EC50) is < 0.1 µg/mL in experiment [1], < 3.16 nM in experiment [3] and < 0.1 µg/mL in experiment [4]. For the same compound, the mortality at 20 ppm in experiment [2] is 80%.

On to `O=C(N[C@H]1CCOc2ccccc21)c1cnc2c(-c3cccc(OC(F)(F)F)c3)cccc2c1N1CCOCC1` [Example 322], for which, in experiment [5], the inhibition at 1 µg/mL is > 80%. Besides, the half-maximal effective concentration (EC50) in experiment [1] was < 0.1 µg/mL; in experiment [3], < 3.16 nM; in experiment [4], < 0.1 µg/mL. For the same compound, the mortality at 20 ppm in experiment [2] was determined as 80%.

Consider `N#CCc1c(C(=O)N[C@H]2CCOc3ccccc32)cnc2c(-c3cc(Cl)cc(Cl)c3)cccc12` [Example 355, 4-(cyanomethyl)-8-(3,5-dichlorophenyl)-N-[(4S)-3,4-dihydro-2H-chromen-4-yl]quinoline-3-carboxamide], for which the inhibition at 1 µg/mL in experiment [5] is > 80%. The EC50 in experiment [1] is < 0.1 µg/mL; in experiment [3], < 3.16 nM; in experiment [4], < 0.1 µg/mL.

As to `NC(=O)Cc1c(C(=O)N[C@H]2CCOc3ccccc32)cnc2c(-c3cc(Cl)cc(Cl)c3)cccc12` [Example 360, 4-(2-amino-2-oxoethyl)-8-(3,5-dichlorophenyl)-N-[(4S)-3,4-dihydro-2H-chromen-4-yl]quinoline-3-carboxamide], the inhibition at 1 µg/mL in experiment [5] was > 80%. Moreover, the values for the EC50 in experiment [1], in experiment [3] and in experiment [4] were < 0.1 µg/mL, 3.16 to 31.6 nM and < 0.1 µg/mL, respectively.

On to `N#Cc1c(C(=O)N[C@H]2CCOc3ccccc32)cnc2c(-c3cc(Cl)cc(Cl)c3)cccc12` [Example 362, 4-cyano-8-(3,5-dichlorophenyl)-N-[(4S)-3,4-dihydro-2H-chromen-4-yl] quinoline-3-carboxamide], for which, in experiment [5], the inhibition at 1 µg/mL is > 80% and the inhibition at 10 µg/mL is > 80%. Further, the EC50 in experiment [1] was < 0.1 µg/mL. Further, the 50% effective concentration (EC50) in experiment [4] was < 0.1 µg/mL.

Turning to `O=C(N[C@H]1CCOc2ccccc21)c1cnc2c(-c3cc(Cl)sc3Cl)cccc2c1N1CCOCC1` [Example 441], the inhibition at 1 µg/mL in experiment [5] is > 80%. Moreover, the values for the EC50 in experiment [1], in experiment [3] and in experiment [4] were < 0.1 µg/mL, < 3.16 nM and < 0.1 µg/mL, respectively.

`O=C(N[C@H]1CCOc2ccccc21)c1cnc2c(-c3sccc3Cl)cccc2c1N1CCOCC1` [Example 442]: the 50% effective concentration (EC50) was < 0.1 µg/mL in experiment [1], < 3.16 nM in experiment [3] and < 0.1 µg/mL in experiment [4].

In the case of `Cc1ccc(C)c(-c2cccc3c(N(C)C)c(C(=O)N[C@H]4CCOc5ccccc54)cnc23)c1` [Example 471], the inhibition at 1 µg/mL in experiment [5] is > 80%. Further, the mortality at 20 ppm in experiment [2] came to 80%. In addition, the 50% effective concentration (EC50) is 3.16 to 31.6 nM in experiment [3] and < 0.1 µg/mL in experiment [4]. The mortality at 4 ppm in experiment [6] amounted to 80%.

As to `C=Cc1c(C(=O)N[C@H]2CCOc3ccccc32)cnc2c(-c3cc(Cl)cc(Cl)c3)cccc12` [Example 478], in experiment [5], the inhibition at 1 µg/mL is > 80%. Further, the 50% effective concentration (EC50) is < 0.1 µg/mL in experiment [1], < 3.16 nM in experiment [3] and < 0.1 µg/mL in experiment [4].

Regarding `CN(C)c1c(C(=O)NC2CSc3ccccc32)cnc2c(-c3cc(Cl)cc(Cl)c3)cccc12` (stereo not drawn) [Example 493], the EC50 in experiment [1] was < 0.1 µg/mL; in experiment [3] it was 3.16 to 31.6 nM; in experiment [4] it was < 0.1 µg/mL.

For the compound `CCc1c(C(=O)N[C@H]2CCOc3ccccc32)cnc2c(-c3cccc(OC(F)(F)F)c3)cccc12` [Example 570], in experiment [5], the inhibition at 1 µg/mL was > 80%. Moreover, the results for the EC50 in experiment [1], in experiment [3] and in experiment [4] were < 0.1 µg/mL, 3.16 to 31.6 nM and < 0.1 µg/mL, respectively.

Regarding `CN(C)c1c(C(=O)N[C@H]2CCOc3ccccc32)cnc2c(-c3cc(C#N)cc(Cl)c3Cl)cccc12` [Example 624], the inhibition at 1 µg/mL in experiment [5] was > 80%. The mortality at 4 ppm in experiment [2] stood at 80%. Moreover, the mortality at 20 ppm in experiment [2] worked out at 100%; in experiment [6], 80%. For the same compound, the results for the EC50 in experiment [3] and in experiment [4] were < 3.16 nM and < 0.1 µg/mL, respectively.

As for `CC(=O)N(C)Cc1c(C(=O)N[C@H]2CCOc3ccccc32)cnc2c(-c3cc(Cl)cc(Cl)c3)cccc12` [Example 631], the inhibition at 1 µg/mL in experiment [5] is > 80%. The mortality at 4 ppm in experiment [2] and in experiment [6] was 100% in each case. Also, the mortality at 20 ppm in experiment [2] and in experiment [6] was 100% throughout. Moreover, the EC50 in experiment [3] is < 3.16 nM; in experiment [4], < 10 µg/mL.
